In article PMC11125359 (Pharmaceuticals, 2024):
Read-outs that look alike come from different tables or passages of the source.

Columns and labels:
[1] = tested on: Bcl-2; experiment: Bcl-2 ELISA in treated Caco-2 cells; type: cell-based, human; conditions: DMSO control 7.99 ± 0.08
[2] = Total antioxidant capacity (TAC), phosphomolybdenum method; conditions: equal concentrations (1000 µg/mL); mean ± SE, three replicates
Protocol: (§1) All in vitro biological activities were assessed in the tested compounds at equal concentrations (1000 µg/mL). All assays were carried out in triplicate.
In vitro biological activities
(§2) The total antioxidant capacity (TAC) was determined by analyzing the green phosphate/Mo5+ complex at a wavelength (λ) of 695 nm, following the procedure described by Prieto
(§3) et al. Samples (at each concentration) were mixed with a reagent solution containing 0.3 N sulfuric
(§4) acid, 28 mM sodium phosphate, and 4 mM ammonium molybdate. Methanol (80%) was used in place
(§5) of the sample for the blank. The tubes were sealed and incubated in a boiling water bath for 90
(§6) minutes. After cooling to room temperature, the absorbance was measured at 695 nm against the
(§7) blank. Ascorbic acid was used at the same concentrations as a standard. The antioxidant capacity was
(§8) expressed as mg gallic acid equivalent per gram weight.
(§9) The iron reducing power was determined as µg/mL using the method proposed by Oyaizu
(§10) In brief, 1ml of the tested sample (at each concentration) was combined with 1mL of 200mM
(§11) sodium phosphate buffer (pH 6.6) and 1mL of 1% potassium ferricyanide. The mixture was then
(§12) incubated at 50°C for 20 minutes, followed by the addition of 1mL of trichloroacetic acid (10%). After
(§13) centrifugation at 2000rpm for 10 minutes, the upper layer solution (2.5 mL) was mixed with 2.5 mL of double deionized water and 1mL of fresh ferric chloride (0.1%). The absorbance was measured at
(§14) 700nm against a blank prepared without the sample. Ascorbic acid was used at the same
(§15) concentrations as a standard. A high absorbance at 700nm indicates a higher reducing power in the
(§16) The 1,1-Diphenyl-2-picryl-hydrazyl (DPPH) radical scavenging activities were evaluated using the method described by Rahman et al. An antioxidant substance capable of donating a
(§17) hydrogen atom to a solution containing DPPH- can reduce the stable free radical, causing the solution
(§18) to change color from violet to pale yellow. The remaining DPPH- radical was quantified by
(§19) nm using a spectroscopic method. Two milliliters of a DPPH solution (100 µM) in ethanol were mixed
(§20) with 2 mL of the sample (at each concentration). The reaction mixture for each concentration was
(§21) thoroughly vortexed and then incubated in the dark at room temperature for 30 minutes. The
(§22) absorbance was then measured spectrophotometrically at 518 nm against a blank (ethanol). For the
(§23) control, 2 mL of ethanol was added instead of the sample and run simultaneously with the test.
(§24) Ascorbic acid was used at the same concentrations as a positive control. Percent inhibition of the
(§25) DPPH free radical was calculated. The median inhibitory concentration (IC 50) for each tested
(§26) The procedure for the 2,2'-azinobis-(3-ethylbenzothiazoline-6-sulfonic acid) (ABTS) assay
(§27) potassium persulfate solution (2.4 mM). The working solution was prepared by mixing the two stock
(§28) solutions in equal quantities and allowing them to react at room temperature in a dark place for 14
(§29) hours. The solution was then diluted by mixing 1 mL of ABTS solution with 60 mL of methanol to
(§30) was prepared for each assay. The tested samples (at each concentration) were allowed to react with 1
(§31) mL of the ABTS solution, and the absorbance was taken at 734 nm after 7 minutes using a
(§32) spectrophotometer. The ABTS scavenging capacities of the samples were compared with that of
(§33) ascorbic acid (at the same concentrations).

[3] = tested on: caspase-3; experiment: Caspase-3 ELISA in treated A549 cells; type: cell-based, human; conditions: DMSO control 85.92 ± 0.12
[4] = ABTS radical scavenging assay; conditions: equal concentrations (1000 µg/mL); mean ± SE
Protocol: as §1
In vitro biological activities
as §2, §3, §4, §5, §6, §7, §8, §9, §10, §11, §12, §13, §14, §15, §16, §17, §18, §19, §20, §21, §22, §23, §24, §25, §26, §27, §28, §29, §30, §31, §32, §33

[5] = tested on: human lung cancer (A549) cell line; experiment: Cytotoxic activity, MTT assay, lung (A549); conditions: for Viability %, A549, 1st concentration: Conc.: 5a 13.45, 5d 12.64, 5e 12.29, 5f 11.81, 7a 12.72, 7f 11.24, DOX 11.50; for Viability %, A549, 2nd concentration: Conc.: 5a 26.91, 5d 25.27, 5e 24.58, 5f 23.63, 7a 25.43, 7f 22.48, DOX 23.00; for Viability %, A549, 3rd concentration: Conc.: 5a 53.81, 5d 50.55, 5e 49.15, 5f 47.26, 7a 50.86, 7f 44.96, DOX 46.00; for Viability %, A549, 4th concentration: Conc.: 5a 107.63, 5d 101.09, 5e 98.31, 5f 94.51, 7a 101.72, 7f 89.93, DOX 91.99; for Viability %, A549, 5th concentration: Conc.: 5a 215.26, 5d 202.19, 5e 196.61, 5f 189.03, 7a 203.44, 7f 179.85, DOX 183.99; for IC50: Homo sapiens, A549, 48 h, read-out: Cytotoxic activity IC50, Lung (A549)
Protocol: It will be assayed against human lung cancer (A549) and colon (Caco-2) cell line in
comparison with normal lung (WI-38) cell line using 3-(4,5-dimethythiazol-2-yl)-2,5-diphenyl
tetrazolium bromide (MTT) assay by determining the optical density (OD) at 570 nm according to the
The cells were dispensed in a 96-well sterile microplate (3
µL of each compound or doxorubicin (positive control, in DMSO) for 48 h in a serum free medium
prior to the MTT assay. Subsequently, the media were carefully removed, and 40 µL of MTT (2.5
mg/mL) was added to each well and then incubated for an additional 4 h. Purple formazan dye
crystals were solubilized by the addition of 200 µL of DMSO. The absorbance was measured at 570 nm using a SpectraMax Paradigm Multi-Mode microplate reader. The relative cell viability was
experiments were conducted in triplicate. Percent of the cell-growth inhibition (%) and the IC 50 was
calculated using IC 50 calculation software. The concentrations used for calculating the IC 50 depend on

[6] = tested on: α-glucosidase; experiment: α-Glucosidase inhibition (anti-diabetic); type: biochemical; conditions: equal concentrations (1000 µg/mL); mean ± SE
[7] = tested on: proteinase enzyme (trypsin); experiment: Proteinase enzyme inhibition (anti-inflammatory); type: biochemical; conditions: equal concentrations (1000 µg/mL); mean ± SE
[8] = molecular target: bovine serum albumin (BSA) (Bos taurus, UniProt P02769); conditions: equal concentrations (1000 µg/mL); mean ± SE
Sequence of bovine serum albumin (BSA) (P02769 25-607): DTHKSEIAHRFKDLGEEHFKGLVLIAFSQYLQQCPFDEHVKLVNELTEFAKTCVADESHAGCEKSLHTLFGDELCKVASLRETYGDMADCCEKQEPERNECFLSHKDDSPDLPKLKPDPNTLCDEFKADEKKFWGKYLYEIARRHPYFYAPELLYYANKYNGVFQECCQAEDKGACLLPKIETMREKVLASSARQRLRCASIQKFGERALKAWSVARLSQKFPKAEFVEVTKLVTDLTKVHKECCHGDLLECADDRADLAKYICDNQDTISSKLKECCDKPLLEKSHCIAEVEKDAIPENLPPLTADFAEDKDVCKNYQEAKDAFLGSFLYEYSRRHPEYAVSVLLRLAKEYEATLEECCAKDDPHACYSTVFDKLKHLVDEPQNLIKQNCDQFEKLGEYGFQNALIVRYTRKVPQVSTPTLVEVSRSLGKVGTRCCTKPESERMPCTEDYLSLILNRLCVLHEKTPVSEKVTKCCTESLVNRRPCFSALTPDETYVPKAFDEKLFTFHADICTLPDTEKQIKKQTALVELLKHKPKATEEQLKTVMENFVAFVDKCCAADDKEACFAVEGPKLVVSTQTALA

[9] = molecular target: acetylcholinesterase (AChE) (Homo sapiens, UniProt P22303); experiment: biochemical; conditions: same concentration (1000 µg/mL); mean ± SE
Sequence of acetylcholinesterase (AChE) (P22303 32-614, species assumed): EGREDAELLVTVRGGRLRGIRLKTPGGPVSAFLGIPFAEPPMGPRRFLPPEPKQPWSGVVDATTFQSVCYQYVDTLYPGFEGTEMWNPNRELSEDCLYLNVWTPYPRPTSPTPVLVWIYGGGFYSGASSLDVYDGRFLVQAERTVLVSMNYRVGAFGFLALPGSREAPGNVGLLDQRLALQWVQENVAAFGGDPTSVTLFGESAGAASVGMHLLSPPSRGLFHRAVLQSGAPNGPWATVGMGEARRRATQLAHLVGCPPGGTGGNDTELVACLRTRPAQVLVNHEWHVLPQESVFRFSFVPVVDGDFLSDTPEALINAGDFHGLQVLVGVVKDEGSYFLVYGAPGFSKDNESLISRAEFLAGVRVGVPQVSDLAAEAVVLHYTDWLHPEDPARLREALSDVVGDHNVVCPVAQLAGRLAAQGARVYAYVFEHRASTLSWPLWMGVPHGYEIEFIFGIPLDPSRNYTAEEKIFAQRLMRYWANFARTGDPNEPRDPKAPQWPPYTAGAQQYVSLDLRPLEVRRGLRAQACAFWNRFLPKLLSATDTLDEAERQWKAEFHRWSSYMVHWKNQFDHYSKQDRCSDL

[10] = tested on: human colon cancer (Caco-2) cell line; experiment: cells; type: cell-based; conditions: for Viability %, Caco-2, 1st concentration: Conc.: 5a 13.45, 5d 12.64, 5e 12.29, 5f 11.81, 7a 12.72, 7f 11.24, DOX 11.50; for Viability %, Caco-2, 2nd concentration: Conc.: 5a 26.91, 5d 25.27, 5e 24.58, 5f 23.63, 7a 25.43, 7f 22.48, DOX 23.00; for Viability %, Caco-2, 3rd concentration: Conc.: 5a 53.81, 5d 50.55, 5e 49.15, 5f 47.26, 7a 50.86, 7f 44.96, DOX 46.00; for Viability %, Caco-2, 4th concentration: Conc.: 5a 107.63, 5d 101.09, 5e 98.31, 5f 94.51, 7a 101.72, 7f 89.93, DOX 91.99; for Viability %, Caco-2, 5th concentration: Conc.: 5a 215.26, 5d 202.19, 5e 196.61, 5f 189.03, 7a 203.44, 7f 179.85, DOX 183.99; for IC50: Homo sapiens, Caco-2, 48 h, MTT, mean ± SE, read-out: Cytotoxic activity IC50, Colon (Caco-2); for Therapeutic Index (TI), Colon (Caco-2): IC50 on normal cells (WI-38)/IC50 on Caco-2
[11] = tested on: Bcl-2; experiment: Bcl-2 ELISA in treated A549 cells; type: cell-based, human; conditions: DMSO control 9.83 ± 0.05
[12] = tested on: caspase-3; experiment: Caspase-3 ELISA in treated Caco-2 cells; type: cell-based, human; conditions: DMSO control 97.06 ± 0.14
[13] = Iron-reducing power (IRP); conditions: equal concentrations (1000 µg/mL); mean ± SE, three replicates
Protocol: as §1
In vitro biological activities
as §2, §3, §4, §5, §6, §7, §8, §9, §10, §11, §12, §13, §14, §15, §16, §17, §18, §19, §20, §21, §22, §23, §24, §25, §26, §27, §28, §29, §30, §31, §32, §33

[14] = tested on: α-amylase; experiment: α-Amylase inhibition (anti-diabetic); type: biochemical; conditions: equal concentrations (1000 µg/mL); mean ± SE
[15] = DPPH radical-scavenging activity; conditions: read-out: DPPH (IC50); mean ± SE, three replicates
Protocol: In vitro biological activities
as §16, §17, §18, §19, §20, §21, §22, §23, §24, §25

[16] = Cytotoxic activity, MTT assay, normal lung (WI-38); type: cell-based; conditions: human, WI-38 normal lung cells; for IC50 at 48 h: MTT, mean ± SE, read-out: Cytotoxic activity IC50, Normal Lung (WI-38)
[17] = Conc. as printed: 5a 53.81, 5d 50.55, 5e 49.15, 5f 47.26, 7a 50.86, 7f 44.96, DOX 46.00, read-out: Viability %, WI-38, 3rd concentration
[18] = Conc. as printed: 5a 107.63, 5d 101.09, 5e 98.31, 5f 94.51, 7a 101.72, 7f 89.93, DOX 91.99, read-out: Viability %, WI-38, 4th concentration
[19] = Conc.: 5a 13.45, 5d 12.64, 5e 12.29, 5f 11.81, 7a 12.72, 7f 11.24, DOX 11.50, read-out: Viability %, WI-38, 1st concentration
[20] = Conc.: 5a 26.91, 5d 25.27, 5e 24.58, 5f 23.63, 7a 25.43, 7f 22.48, DOX 23.00, read-out: Viability %, WI-38, 2nd concentration
[21] = Conc.: 5a 215.26, 5d 202.19, 5e 196.61, 5f 189.03, 7a 203.44, 7f 179.85, DOX 183.99, read-out: Viability %, WI-38, 5th concentration

| Compound | Bcl-2 level, Colon (Caco-2) [1] [ng/mL] | Total Antioxidant Capacity (TAC) [2] [mg Gallic Acid/g] | Caspase-3 level, Lung (A549) [3] [pg/mL] | ABTS (%) inhibition [4] [%] | Viability %, A549, 1st concentration [5] [%] | Viability %, A549, 2nd concentration [5] [%] | Viability %, A549, 3rd concentration [5] [%] | Viability %, A549, 4th concentration [5] [%] | Viability %, A549, 5th concentration [5] [%] | IC50 [5] [µM] | Inhibition (%) α-Glucosidase [6] [%] | Inhibition (%) Proteinase [7] [%] | Inhibition (%) Protein Denaturation [8] [%] | inhibition at 1000 µg/mL [9] [%] | Viability %, Caco-2, 1st concentration [10] [%] | Viability %, Caco-2, 2nd concentration [10] [%] | Viability %, Caco-2, 3rd concentration [10] [%] | Iron-Reducing Power (IRP) [13] [µg/mL] | Inhibition (%) α-Amylase [14] [%] | IC50 [15] [µM] | other results |
| --- | --- | --- | --- | --- | --- | --- | --- | --- | --- | --- | --- | --- | --- | --- | --- | --- | --- | --- | --- | --- | --- |
| O=C(Nc1ccccc1)c1c(Nc2ccccc2)n[nH]c1N=Cc1ccc(N2CCCCC2)cc1 [5a] | 5.33 ± 0.05 | 52.25 ± 0.19 | 184.74 ± 0.26 | 75.46 ± 0.05 | 97.46 | 87.31 | 60.91 | 46.48 | 20.20 | 68.84 ± 0.14 | 26.87 ± 0.05 | 23.33 ± 0.03 | 26.83 ± 0.03 | 42.05 ± 0.03 | 82.93 | 74.41 | 55.38 | 34.27 ± 0.07 | 31.24 ± 0.05 | 26.43 ± 0.01 | Viability %, Caco-2, 4th concentration [10]: 33.22%; Viability %, Caco-2, 5th concentration [10]: 25.84%; IC50 [10]: 60.29 ± 0.14 µM; Therapeutic Index (TI), Colon (Caco-2) [10]: 7.32; Bcl-2 level, Lung (A549) [11]: 6.55 ± 0.03 ng/mL; Caspase-3 level, Colon (Caco-2) [12]: 208.68 ± 0.31 pg/mL; viability at 48 h [16, 17]: 69.5%; viability at 48 h [16, 18]: 54.2%; viability at 48 h [16, 19]: 81.4%; viability at 48 h [16, 20]: 75.5%; viability at 48 h [16, 21]: 38.3%; IC50 at 48 h [16]: 442 ± 8.8 µM |
| COc1ccc(Nc2n[nH]c(/N=C/c3ccc(N4CCCCC4)cc3)c2C(=O)Nc2ccccc2)cc1 [5d] | 3.20 ± 0.03 | 54.13 ± 0.20 | 300.73 ± 0.42 | 78.18 ± 0.05 | 90.46 | 79.41 | 48.01 | 36.58 | 18.10 | 48.61 ± 0.14 | 27.84 ± 0.05 | 24.17 ± 0.03 | 27.79 ± 0.03 | 62 ± 0.04 | 70.71 | 51.15 | 40.54 | 35.51 ± 0.07 | 32.37 ± 0.05 | 23.98 ± 0.01 | Inhibition (%) Acetylcholinesterase [9]: 62.11 ± 0.04%; Viability %, Caco-2, 4th concentration [10]: 26.77%; Viability %, Caco-2, 5th concentration [10]: 23.43%; IC50 [10]: 62.33 ± 0.14 µM; Therapeutic Index (TI), Colon (Caco-2) [10]: 11.73; Bcl-2 level, Lung (A549) [11]: 2.81 ± 0.01 ng/mL; Caspase-3 level, Colon (Caco-2) [12]: 242.65 ± 0.36 pg/mL; viability at 48 h [16, 17]: 82.7%; viability at 48 h [16, 18]: 76.8%; viability at 48 h [16, 19]: 98.7%; viability at 48 h [16, 20]: 90.7%; viability at 48 h [16, 21]: 62.7%; IC50 at 48 h [16]: 732 ± 10.5 µM |
| COc1ccc(Nc2n[nH]c(/N=C/c3ccc(N4CCCCC4)cc3)c2C(=O)Nc2ccc(C)cc2)cc1 [5e] | 2.46 ± 0.02 | 53.23 ± 0.20 | 214.81 ± 0.30 | 76.87 ± 0.05 | 90.96 | 79.91 | 48.51 | 37.08 | 18.60 | 47.74 ± 0.2 | 27.37 ± 0.05 | 23.76 ± 0.03 | 27.33 ± 0.03 | 42.83 ± 0.03 | 70.21 | 50.65 | 40.04 | 34.91 ± 0.07 | 31.83 ± 0.05 | 23.71 ± 0.01 | Viability %, Caco-2, 4th concentration [10]: 26.27%; Viability %, Caco-2, 5th concentration [10]: 11.43%; IC50 [10]: 40.99 ± 0.2 µM; Therapeutic Index (TI), Colon (Caco-2) [10]: 15.81; Bcl-2 level, Lung (A549) [11]: 3.93 ± 0.02 ng/mL; Caspase-3 level, Colon (Caco-2) [12]: 315.45 ± 0.46 pg/mL; viability at 48 h [16, 17]: 81%; viability at 48 h [16, 18]: 65.7%; viability at 48 h [16, 19]: 92.9%; viability at 48 h [16, 20]: 87%; viability at 48 h [16, 21]: 38.3%; IC50 at 48 h [16]: 648 ± 7.57 µM |
| COc1ccc(Nc2n[nH]c(N=Cc3c(C)n(C)n(-c4ccccc4)c3=O)c2C(=O)Nc2ccccc2)cc1 [7d] |  | 30.36 ± 0.11 |  | 43.85 ± 0.03 |  |  |  |  |  |  | 15.61 ± 0.03 | 13.56 ± 0.02 | 15.59 ± 0.02 | 24.44 ± 0.01 |  |  |  | 19.92 ± 0.04 | 18.16 ± 0.03 | 40.53 ± 0.02 |  |
| COc1ccc(Nc2n[nH]c(N=Cc3c(C)n(C)n(-c4ccccc4)c3=O)c2C(=O)Nc2ccc(C)cc2)cc1 [7e] |  | 15.68 ± 0.06 |  | 22.65 ± 0.01 |  |  |  |  |  |  | 8.07 ± 0.02 | 4.81 ± 0.01 | 8.05 ± 0.01 | 12.62 ± 0.01 |  |  |  | 10.29 ± 0.02 | 9.38 ± 0.02 | 51.98 ± 0.03 |  |
